Assay results published in patent publication US20080146555A1, “Uses of Kinase Inhibitors and Compositions Thereof” (GPC Biotech, Inc, priority 2004, published 2008).
Where a name gives a salt, the structure may show the parent alone. Read-outs that look alike come from different tables or passages of the source.

Assays:
HCT-116 cells = assay: Calcein AM viability assay, HCT-116; format: cell-based; conditions: Homo sapiens
Method in brief: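 Cells (HCT-116 1,000, IMR90 4,000 per well) adhered overnight, then received 7 doses from 0 to 250 nM for 72 h at 37 °C. Viability read as calcein fluorescence after 75 min with Calcein AM; IC50 values, with protein-adjusted values also obtained in HCT-116.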

Cdk7 = Cdk7 (Homo sapiens, UniProt P50613); assay: Cdk7 inhibition; format: biochemical
Text: Further inhibition results for subject compounds of the invention against other CDKs and further kinases are shown in Table 5, Table II and described in Example 6.
Table 3, Table 4, Table 5 and Table II show the results obtained for inhibition of a broad range of such kinases for subject compounds of the invention.

MEK1 = target: T1, MEK1 (Homo sapiens, UniProt Q02750); assay: MEK1 kinase assay; format: biochemical
T1 construct: purchased Upstate 14-429
Method: 1. Assay Dilution Buffer I (ADBI, Catalog #20-108): 20 mM MOPS, pH 7.2, 25 mM β-glycerol phosphate, 5 mM EGTA, 1 mM sodium orthovanadate, 1 mM dithiothreitol. • 2. Magnesium/ATP Cocktail (Catalog #20-113): 500 μM cold ATP and 75 mM magnesium chloride in ADBI. • 3. MEK1, active: Dilute to 0.5-5 ng/μl with ADBI containing 0.03% Brij-35 and 1 mg/ml BSA. Use 5 μl per assay point. • 4. MAP Kinase 2/Erk2, unactive (Catalog #14-198): Use 1 μg per assay point. • 5. MBP Substrate (Catalog #13-104): Prepare a 3.33 mg/ml stock solution with ADBI. Use 2.5 μl per assay for a final concentration of 0.33 mg/ml per assay point. • 6. Magnesium/ATP Cocktail (Catalog #20-113): 75 mM MgCl2 and 500 μM ATP in 20 mM MOPS, pH 7.2, 25 mM β-glycerol phosphate, 5 mM EGTA, 1 mM sodium orthovanadate, 1 mM dithiothreitol.
7. [γ-^32P]ATP: Stock 1 mCi/100 μl (3000 Ci/mmol, obtained from Perkin Elmer, Catalog #BLU002A). Make 10 μl aliquots (100 μCi/vial). Before starting the assay, dilute the Magnesium/ATP Cocktail 1:1 with sterile, distilled water. Then dilute an aliquot of [γ-^32P]ATP to 1 μCi/μl with 90 μl of the diluted Magnesium/ATP Cocktail. […]
• 1. Add 1 μl of ADBI to a microcentrifuge tube. • 2. Add 5 μl of Magnesium/ATP cocktail. • 3. Add 5 μl of MEK1, active (2.5-25 ng) • 4. Add 4 μl (1 μg) of unactive MAP Kinase 2/Erk 2. • 5. Incubate at 30° C. for 30 minutes. • 6. Remove 1 μl of this mixture and add to Stage Two component mixture.
• 1. Add 12.5 μl of ADBI. • 2. Add 2.5 μl of MBP stock solution. • 3. Add 10 μl of diluted [γ-^32P] ATP. • 4. Incubate for at 30° C. 10 minutes. • 5. Transfer a 20 μl aliquot onto the center of a 2 cm×2 cm P81 paper square. • 6. Wash the paper squares three times with 0.75% phosphoric acid for 5 minutes per wash. • 7. Wash the paper squares once with acetone for five minutes. • 8. Transfer the paper squares to a scintillation vial and add 5 ml scintillation cocktail. • 9. Read in scintillation counter. Compare cpm of enzyme samples to cpm of control samples that contain no enzyme (background control).

A129 cp80 = assay: SRB cytotoxicity, cisplatin resistant cells; format: cell-based, human; conditions: for IC50: Homo sapiens, 72 h, SRB
cell cycle = assay: Cell cycle arrest; format: cell-based
[1] = HCT-116, non-protein adjusted, Table 4, read-out: HCT-116 viability IC50
[2] = HCT-116, text b600, read-out: HCT-116 protein-adjusted viability IC50
[3] = HCT-116, text b600, read-out: HCT-116 viability IC50
[4] = kinase panel, 10 μM ATP, read-out: MAPK 1 / MEK1 IC50
[5] = read-out: MAP2K1 Inhibition (IC50)

T1 sequence (Q02750 whole entry, species assumed): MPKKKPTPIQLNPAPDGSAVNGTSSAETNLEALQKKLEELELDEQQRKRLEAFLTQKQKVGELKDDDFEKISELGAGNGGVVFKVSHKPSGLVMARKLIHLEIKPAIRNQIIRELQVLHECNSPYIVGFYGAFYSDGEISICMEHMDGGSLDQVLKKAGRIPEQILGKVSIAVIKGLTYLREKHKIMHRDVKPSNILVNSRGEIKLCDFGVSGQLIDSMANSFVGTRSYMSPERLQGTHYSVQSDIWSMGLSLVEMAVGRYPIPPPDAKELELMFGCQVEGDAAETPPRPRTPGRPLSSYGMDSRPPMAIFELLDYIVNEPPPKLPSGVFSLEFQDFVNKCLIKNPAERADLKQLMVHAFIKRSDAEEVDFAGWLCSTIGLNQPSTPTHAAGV
Sequence of Cdk7 (P50613 whole entry, species assumed): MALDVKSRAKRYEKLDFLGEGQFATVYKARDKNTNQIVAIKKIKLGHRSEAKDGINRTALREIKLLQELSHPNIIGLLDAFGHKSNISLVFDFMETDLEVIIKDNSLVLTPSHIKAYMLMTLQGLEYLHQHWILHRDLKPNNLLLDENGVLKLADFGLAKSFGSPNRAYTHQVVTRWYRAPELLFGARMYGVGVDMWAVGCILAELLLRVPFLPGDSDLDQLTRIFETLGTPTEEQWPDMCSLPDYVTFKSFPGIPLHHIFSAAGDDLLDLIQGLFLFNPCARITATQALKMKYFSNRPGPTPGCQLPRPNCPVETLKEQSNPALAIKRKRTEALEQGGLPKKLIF
Sequence of Cdk7 (P51946 whole entry partner, species assumed): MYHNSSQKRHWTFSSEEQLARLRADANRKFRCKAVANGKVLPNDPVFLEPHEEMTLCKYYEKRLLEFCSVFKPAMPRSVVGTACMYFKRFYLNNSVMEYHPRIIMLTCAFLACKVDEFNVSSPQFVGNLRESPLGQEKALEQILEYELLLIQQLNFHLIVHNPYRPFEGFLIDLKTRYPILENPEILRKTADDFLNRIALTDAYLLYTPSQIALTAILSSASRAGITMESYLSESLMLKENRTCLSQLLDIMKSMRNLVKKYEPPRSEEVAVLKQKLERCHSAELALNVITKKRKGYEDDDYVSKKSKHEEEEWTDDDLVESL
Sequence of Cdk7 (P51948 whole entry partner, species assumed): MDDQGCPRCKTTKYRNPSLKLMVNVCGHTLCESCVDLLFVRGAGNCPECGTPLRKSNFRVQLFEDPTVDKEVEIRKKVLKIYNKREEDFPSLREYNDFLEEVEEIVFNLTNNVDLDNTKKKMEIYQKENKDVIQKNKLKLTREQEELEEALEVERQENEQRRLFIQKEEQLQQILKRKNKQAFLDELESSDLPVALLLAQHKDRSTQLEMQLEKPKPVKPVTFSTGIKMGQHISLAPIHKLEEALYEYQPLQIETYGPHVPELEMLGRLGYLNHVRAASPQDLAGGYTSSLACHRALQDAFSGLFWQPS

Row | SMILES | IC50 (HCT-116 cells; [1]) | IC50 (HCT-116 cells; [2]) | IC50 (HCT-116 cells; [3]) | IC50 (Cdk7) | IC50 (MEK1; [4]) | IC50 (MEK1; [5]) | RR (relative resistance) A129 cp80 vs A129 (A129 cp80) | IC50 (A129 cp80) | cell cycle arrest (cell cycle)
1 | CC(C)N1CCN(C(=O)COc2ccc(-c3n[nH]c4c3C(=O)c3c(NC(=O)NN5CCOCC5)cccc3-4)cc2)CC1 [Compound A37] | < 0.1 µM | < 0.5 µM | < 0.05 µM | < 0.5 µM | 0.01 to 0.1 µM | < 0.05 µM | 0.7 | 0.004 µM | predominantly G1 arrest
2 | COCCN1CCN(Cc2ccc(-c3n[nH]c4c3C(=O)c3c(NC(=O)NN5CCOCC5)cccc3-4)cc2)CC1 [Compound B16, N-[3-(4-{[4-(2-methoxyethyl)piperazinyl]methyl}phenyl)-4-oxoindeno[2,3-d]pyrazol-5-yl](morpholin-4-ylamino)carboxamide dihydrochloride] | < 0.01 µM | < 0.5 µM | < 0.01 µM | < 0.05 µM | < 0.1 µM | < 0.1 µM | 0.5 | 0.0047 µM | predominantly G1 arrest
